For test [1], the system named is paw incision-induced thermal hyperalgesia. Description: Paw incision-induced thermal hyperalgesia. In kind it is in vivo. Conditions: rats, intradermal injection into the surgical wound, 1 and 3 hour post-treatment. On the procedure:
FIGS. 3A-3B are data showing reversal of paw incision-induced thermal hyperalgesia by charged sodium channel blockers. […] The data are means±SEM of 8 rats per group. The statistical comparison with the contralateral paw (*) is indicated by ***P<0.001. All procedures were approved by the Institutional Animal Care and Use Committees. Mice and rats were housed in standard environmental conditions (12-h light/dark cycle; 23° C.; food and water ad libitum) at facilities accredited by the Association for Assessment and Accreditation of Laboratory Animal Care. 8-week old male BALB/c (stock number: 001026) and C57BL/6J (stock number 000664) mice were purchased from Jackson Laboratory and respectively used in allergic airway inflammation (FIG. 5) and pain hypersensitivity model (FIGS. 2A-2D). 6-week old male Sprague-Dawley (stock number: 400) rats, 150±25 grams, were purchased from Charles River laboratory and used to assess pain hypersensitivity (FIG. 3). The compounds were injected in the plantar surface of each animal's right hind paw in 10 μl (mice) or 50 μl (rats) volume of 1:1 emulsion of Complete Freund's Adjuvant (CFA). […] On the 4th day, their thermal nociceptive threshold was evaluated. […] Impact of treatment was analyzed 1 h prior and 1, 3, 6 and 24 h post-treatment. […] With each reading the apparatus was set with a cut-off time of 32 s. […]

The subject of test [2] is thermal nociceptive threshold. The test is described as follows: Thermal nociceptive threshold after acute intraplantar injection in naive animals. In kind it is in vivo, rats. The following applies: for difference in thermal nociceptive threshold between contralateral and injected paw: rats, acute intraplantar injection 50 μl, 0.5%, no injury.
Test [3] deals with allergic airway inflammation induced by Ovalbumin. Description: Ovalbumin allergic airway inflammation, BALF immune cell counts. In kind it is in vivo. Conditions: OVA-exposed mice, aerosolized 100 μM on day 18, read day 21. On the procedure:
FIG. 5A-5E are results showing that lung sensory neuron silencing with N-ethyl-etidocaine (Compound 21) reduces allergic airway inflammation. OVA-exposed mice (day 21) develop increases in BALF total (FIG. 5A), and CD45+ cells (FIG. 5B), including eosinophil (FIG. 5C), macrophage (FIG. 5D) and T-cell (FIG. 5E) counts. In comparison to vehicle treatment, the silencing of sensory neurons using aerosolized QX-314 (100 μM, hollow square) or N-ethyl-etidocaine (Compound 21) (100 μM, dark square) decreased these levels. […] Data expressed as mean S.E.M; Two-tailed unpaired Student's t-test (n=8-16 animals/group; 1-2 cohorts). […]
Allergic airway inflammation was studied in an ovalbumin (OVA) based model. […] Drugs were nebulized on day 18 (10:00 am) and inflammation (BALF cell content)/airway hyper-responsiveness were assessed on day 21 (10:00 am). […]
Bronchoalveolar lavage fluid (BALF) cells were re-suspended in FACS buffer (PBS, 2% FCS, EDTA), and incubated with Fc block (0.5 mg/ml, 10 min; BD Biosciences). […] A leukocyte differential count was determined during flow cytometry analysis of cells expressing the common leukocyte antigen CD45 (BD Pharmigen; cat no: 553079). […] Total BAL cell counts were performed using a standard hemocytometer, with absolute cell numbers calculated as total BAL cell number multiplied by the percentage of cell subpopulation as determined by FACS.

“Also recorded” adds a separate entry of the source.

Take `CC[N+](CC)(CC)CC(=O)Nc1c(C)cccc1C` [QX-314, reference compound]: the “thermal hyperalgesia after surgical incision versus contralateral paw” value in test [1] is recorded as “absent”. Besides, in test [2], the “difference in thermal nociceptive threshold between contralateral and injected paw” value is listed as “no differences”. Also, the “BALF immune cell levels (total, CD45+, eosinophil, macrophage, T-cell)” value in test [3] was “decreased”.

In the case of `CCC[N+](CC)(CC)C(CC)C(=O)Nc1c(C)cccc1C` (stereo not shown) [Compound 21, N-ethyl etidocaine], in test [1], the “thermal hyperalgesia after surgical incision versus contralateral paw” value is given as “absent”. For the same compound, the “long lasting analgesia in naïve animals” value in test [2] (naïve animals) is given as “without long lasting analgesia”. Besides, the “difference in thermal nociceptive threshold between contralateral and injected paw” value in test [2] is reported as “no differences”. Moreover, in test [3], the “BALF immune cell levels (total, CD45+, eosinophil, macrophage, T-cell)” value is on record as “blocked; also recorded: potently reversed; also recorded: decreased; also recorded: tendency toward a greater decrease in comparison to QX-314”.

Values taken from patent US20200377459A1, “CHARGED ION CHANNEL BLOCKERS AND METHODS FOR USE” (President and Fellows of Harvard College, priority 2015, published 2020).
